This passage reports TGI results from PubChem BioAssay (NCI).

Among the test systems are SNB-75 CNS; SF-295 CNS; NCI/ADR-RES ovarian; HOP-62 NSCLC; A549 NSCLC; TK-10 renal; MDA-MB-231 breast; EKVX NSCLC; SK-MEL-5 melanoma; NCI-H522 lung.
What all share (experiment): NCI tumour cell line growth inhibition, 48 h

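Cells were grown in 96-well plates and exposed to each compound for 48 hours at five concentrations; endpoints were interpolated linearly between bracketing concentrations, or set to the highest concentration if not reached. At the TGI there is no net growth.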 Where only a bound is given, the exact number is not on record here.

Regarding `C#CCn1c(=O)c2cc(OC)c(OC)cc2n(CC#C)c1=O`, the TGI with SNB-75 CNS, with SF-295 CNS, in the assay with NCI/ADR-RES ovarian, with HOP-62 NSCLC, with A549 NSCLC and with TK-10 renal was over 10 µM in each case. For the same molecule, the TGI with MDA-MB-231 breast, with EKVX NSCLC, with SK-MEL-5 melanoma and with NCI-H522 lung was over 10 µM throughout.

Take `CN1CN(c2ccccc2)C2(CCN(C(=O)OC(C)(C)C)CC2)C1=O`: the TGI with SNB-75 CNS, in the assay with SF-295 CNS, in the assay with NCI/ADR-RES ovarian, in the assay on HOP-62 NSCLC, in the assay with A549 NSCLC and in the assay on TK-10 renal was over 100 µM each time. Moreover, the TGI with MDA-MB-231 breast, with EKVX NSCLC, in the assay on SK-MEL-5 melanoma and with NCI-H522 lung was over 100 µM each time.

For `CC(C)(C)c1ccc(OCCOc2ccc(C(C)(C)C)cc2NC=O)c(NC=O)c1`, the TGI in the assay with SNB-75 CNS was over 78.7 µM; in the assay on SF-295 CNS, 25 µM; with NCI/ADR-RES ovarian it was 37.7 µM; in the assay on HOP-62 NSCLC, 28 µM; with A549 NSCLC it was over 100 µM; in the assay with TK-10 renal it was over 100 µM. For the same molecule, the TGI in the assay on MDA-MB-231 breast was 40.5 µM; with EKVX NSCLC, 98 µM; in the assay on SK-MEL-5 melanoma it was 15.3 µM; with NCI-H522 lung it was 24.4 µM.

Turning to `COc1ccc(/C=C2\CCC(C)(CN(C)C)C2=O)cc1Br` (stereo not given), the TGI in the assay on SNB-75 CNS is 76.3 µM; in the assay on SF-295 CNS it was 80.7 µM; with NCI/ADR-RES ovarian, 43.2 µM; with HOP-62 NSCLC, 97 µM; in the assay with A549 NSCLC, over 100 µM; with TK-10 renal, 44 µM. The TGI with MDA-MB-231 breast was found to be 68.1 µM; with EKVX NSCLC it was 49.3 µM; in the assay on SK-MEL-5 melanoma, 28.3 µM; with NCI-H522 lung, 32.8 µM.

Regarding `CC(=O)OC1CC[C@@]2(C)C(=CC[C@@H]3[C@@H]2CC[C@]2(C)Nc4c(cnn4-c4ccc(F)cc4)C[C@@H]32)C1` (stereo not given in full), the TGI with SNB-75 CNS is 66.5 µM; with SF-295 CNS it was 36.4 µM; in the assay on NCI/ADR-RES ovarian, over 100 µM; in the assay on HOP-62 NSCLC, 17.8 µM; in the assay on A549 NSCLC, over 100 µM; in the assay on TK-10 renal it was over 100 µM. The TGI was over 100 µM in the assay with MDA-MB-231 breast, over 100 µM with EKVX NSCLC, over 93.9 µM with SK-MEL-5 melanoma and over 100 µM in the assay on NCI-H522 lung.

For the molecule `C=C1C(O)C2OC(=O)C(=C)C2C(OC(=O)/C(C)=C/C)CC2(C)OC2C2OC12` (stereo not given), the TGI with SNB-75 CNS is over 100 µM; in the assay with SF-295 CNS, 50.9 µM; in the assay with NCI/ADR-RES ovarian it was over 100 µM; in the assay with HOP-62 NSCLC, over 100 µM; with A549 NSCLC, over 100 µM; in the assay on TK-10 renal, 47.2 µM. The TGI is 37.9 µM in the assay on MDA-MB-231 breast, 33 µM with EKVX NSCLC, over 100 µM with SK-MEL-5 melanoma and 15.6 µM in the assay with NCI-H522 lung.

Turning to `COc1cccc2c1CCc1sc(CN3CCN(C)CC3)nc1-2`, the TGI in the assay with SNB-75 CNS, in the assay on SF-295 CNS, with NCI/ADR-RES ovarian, in the assay with HOP-62 NSCLC, with A549 NSCLC and in the assay on TK-10 renal was over 100 µM throughout. The TGI in the assay on MDA-MB-231 breast was over 100 µM; in the assay with EKVX NSCLC, over 100 µM; in the assay with SK-MEL-5 melanoma, 80.1 µM; with NCI-H522 lung, over 100 µM.

On to `COc1ccc2cc(CNCCOCCOCCNCc3ccc4cc(OC)ccc4c3)ccc2c1`, for which the TGI with SNB-75 CNS came out at 3.03 µM; with SF-295 CNS, 2.59 µM; in the assay on NCI/ADR-RES ovarian, 3.02 µM; in the assay with HOP-62 NSCLC it was 3.87 µM; in the assay on A549 NSCLC it was 3.12 µM; with TK-10 renal it was 2.98 µM. Further, the TGI was determined as 2.91 µM with MDA-MB-231 breast, 3.21 µM with EKVX NSCLC, 1.81 µM in the assay on SK-MEL-5 melanoma and 3.49 µM in the assay with NCI-H522 lung.

In the case of `C1=Nc2ccc(cc2)-c2ccc(cc2)N=Cc2ccccc2OCc2cccc(n2)COc2ccccc21`, the TGI was 12.1 µM with SNB-75 CNS; over 75.9 µM in the assay with SF-295 CNS; over 100 µM in the assay with NCI/ADR-RES ovarian; 20.1 µM with HOP-62 NSCLC; over 100 µM in the assay with A549 NSCLC; over 93.3 µM in the assay on TK-10 renal. For the same molecule, the TGI in the assay on MDA-MB-231 breast was over 66.3 µM; in the assay with EKVX NSCLC, over 100 µM; in the assay with SK-MEL-5 melanoma, over 100 µM; in the assay on NCI-H522 lung, over 96.5 µM.

On to `COc1c(C(=O)CC2c3c(cc4oc(C)cc(=O)c4c3OC)OC(=N)C2c2nc3ccccc3[nH]2)c(O)c(OC)c2occc12` (stereo not given), for which the TGI with SNB-75 CNS, with SF-295 CNS, in the assay on NCI/ADR-RES ovarian, with HOP-62 NSCLC, in the assay on A549 NSCLC and with TK-10 renal was over 100 µM each time. The TGI in the assay with MDA-MB-231 breast, in the assay on EKVX NSCLC, in the assay with SK-MEL-5 melanoma and with NCI-H522 lung was over 100 µM each time.

Regarding `O=S1(=O)OCCOS(=O)(=O)C1C1c2ccccc2-c2ccccc21`, the TGI is 31.9 µM in the assay with SNB-75 CNS; over 100 µM with SF-295 CNS; 85.1 µM in the assay with NCI/ADR-RES ovarian; over 100 µM in the assay with HOP-62 NSCLC; over 100 µM in the assay with A549 NSCLC; over 100 µM in the assay with TK-10 renal. The TGI is over 100 µM with MDA-MB-231 breast, over 100 µM in the assay with EKVX NSCLC, over 100 µM in the assay with SK-MEL-5 melanoma and 64.5 µM in the assay on NCI-H522 lung.
